Laboratory results taken from ChEMBL document CHEMBL1201862, “PubChem BioAssay data set” (2004).
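Cultured in 96-well plates, cells were exposed to test compound for 48 hours across five concentrations. GI50 is the concentration that inhibits growth by half.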 Active and inactive are the calls of the source. Rule as the data show it: active = GI50 up to about 1.1 µM and inactive = higher.

Key:
Experiment in all cases: DTP human tumour cell line panel, 48 h
K562 = test system: K562
OVCAR-8 = test system: OVCAR-8
MOLT-4 = test system: MOLT-4
RPMI-8226 = test system: RPMI-8226
HCT-15 = test system: HCT-15
786-0 = test system: 786-0
IGROV-1 = test system: IGROV-1
SR = test system: SR
CCRF-CEM = test system: CCRF-CEM
UO-31 = test system: UO-31
OVCAR-3 = test system: OVCAR-3
SF-295 = test system: SF-295
SK-MEL-2 = test system: SK-MEL-2
A549 = test system: A549
Malme-3M = test system: Malme-3M
OVCAR-5 = test system: OVCAR-5
NCI-H522 = test system: NCI-H522
SK-MEL-5 = test system: SK-MEL-5

| SMILES | GI50 (K562) | GI50 (OVCAR-8) | GI50 (MOLT-4) | GI50 (RPMI-8226) | GI50 (HCT-15) | GI50 (786-0) | GI50 (IGROV-1) | GI50 (SR) | GI50 (CCRF-CEM) | GI50 (UO-31) | GI50 (OVCAR-3) | GI50 (SF-295) | GI50 (SK-MEL-2) | GI50 (A549) | GI50 (Malme-3M) | GI50 (OVCAR-5) | GI50 (NCI-H522) | GI50 (SK-MEL-5) |
| --- | --- | --- | --- | --- | --- | --- | --- | --- | --- | --- | --- | --- | --- | --- | --- | --- | --- | --- |
| O=C(O)CCSC(=O)Nc1cccc([N+](=O)[O-])c1 | > 100 µM (inactive) | > 100 µM (inactive) | 43.7 µM (inactive) | > 100 µM (inactive) | 44.2 µM | > 100 µM (inactive) | 72.6 µM (inactive) | > 100 µM (inactive) | > 100 µM (inactive) | 63 µM (inactive) | > 100 µM (inactive) | > 100 µM (inactive) | > 100 µM (inactive) | > 100 µM (inactive) | – | – | – | – |
| CCOc1ccc([Se][Se]c2ccc(OCC)cc2)cc1 | – | > 100 µM (inactive) | – | 28.1 µM (inactive) | 82.4 µM | > 100 µM (inactive) | 94.4 µM (inactive) | > 100 µM (inactive) | – | 27.5 µM (inactive) | > 100 µM (inactive) | > 100 µM (inactive) | > 100 µM (inactive) | > 100 µM (inactive) | > 100 µM (inactive) | 18.8 µM (inactive) | 46 µM (inactive) | – |
| CCOc1cc(/C=C/C=C/C=C/c2ccc(N(C)C)cc2)[s+]c2ccccc12 | 20.9 µM (inactive) | 27.6 µM (inactive) | 5.5 µM (inactive) | 6.78 µM (inactive) | 26.4 µM | 22.5 µM (inactive) | 37.5 µM (inactive) | – | 4.88 µM (inactive) | 4.58 µM (inactive) | 14.4 µM (inactive) | 33.8 µM (inactive) | 37.3 µM (inactive) | 21 µM (inactive) | 22.9 µM (inactive) | > 100 µM (inactive) | 4.56 µM (inactive) | 24 µM (inactive) |
| O=c1/c(=C/c2c(O)ccc3ccccc23)sc2nc3ccccc3n12 | > 100 µM (inactive) | > 100 µM (inactive) | – | – | > 100 µM | > 100 µM (inactive) | > 100 µM (inactive) | – | > 100 µM (inactive) | > 100 µM (inactive) | > 100 µM (inactive) | > 100 µM (inactive) | > 100 µM (inactive) | > 100 µM (inactive) | > 100 µM (inactive) | > 100 µM (inactive) | > 100 µM (inactive) | > 100 µM (inactive) |
| N#CC(C(=O)CCC(=O)Nc1ccc(Cl)c(Cl)c1)c1ccccc1 (stereo unspecified) | > 100 µM (inactive) | > 100 µM (inactive) | > 100 µM (inactive) | > 100 µM (inactive) | > 100 µM | > 100 µM (inactive) | > 100 µM (inactive) | – | – | > 100 µM (inactive) | > 100 µM (inactive) | > 100 µM (inactive) | > 100 µM (inactive) | > 100 µM (inactive) | > 100 µM (inactive) | > 100 µM (inactive) | – | > 100 µM (inactive) |
| Cc1ccc(NC(=O)C(=O)Cc2nc3ccccc3o2)c(C)c1 | > 100 µM (inactive) | > 100 µM (inactive) | – | > 100 µM (inactive) | > 100 µM | > 100 µM (inactive) | > 100 µM (inactive) | – | – | > 100 µM (inactive) | > 100 µM (inactive) | > 100 µM (inactive) | > 100 µM (inactive) | > 100 µM (inactive) | > 100 µM (inactive) | > 100 µM (inactive) | – | – |
| O=[PH](O)c1ccsc1 | > 100 µM (inactive) | > 100 µM (inactive) | > 100 µM (inactive) | > 100 µM (inactive) | > 100 µM | > 100 µM (inactive) | > 100 µM (inactive) | – | > 100 µM (inactive) | > 100 µM (inactive) | – | – | – | > 100 µM (inactive) | – | – | > 100 µM (inactive) | > 100 µM (inactive) |
| OC1NC2Nc3ccccc3NC2NC1O (stereo unspecified) | > 100 µM (inactive) | > 100 µM (inactive) | > 100 µM (inactive) | – | > 100 µM | > 100 µM (inactive) | > 100 µM (inactive) | > 100 µM (inactive) | > 100 µM (inactive) | – | > 100 µM (inactive) | > 100 µM (inactive) | > 100 µM (inactive) | > 100 µM (inactive) | > 100 µM (inactive) | > 100 µM (inactive) | > 100 µM (inactive) | > 100 µM (inactive) |
| COc1ccc(C=C2C(=O)OC(C)(C)OC2=O)cc1OC | > 100 µM (inactive) | > 100 µM (inactive) | > 100 µM (inactive) | > 100 µM (inactive) | > 100 µM | > 100 µM (inactive) | > 100 µM (inactive) | – | > 100 µM (inactive) | > 100 µM (inactive) | > 100 µM (inactive) | > 100 µM (inactive) | > 100 µM (inactive) | > 100 µM (inactive) | > 100 µM (inactive) | > 100 µM (inactive) | > 100 µM (inactive) | > 100 µM (inactive) |
| COC1C=C(Nc2cccc(Cl)c2)C(=O)C1 (stereo unspecified) | 41.6 µM (inactive) | 96.2 µM (inactive) | 49.3 µM (inactive) | – | – | > 100 µM (inactive) | > 100 µM (inactive) | 58.3 µM (inactive) | 63.1 µM (inactive) | 41.2 µM (inactive) | 65.3 µM (inactive) | 54 µM (inactive) | 71 µM (inactive) | 18.5 µM (inactive) | > 100 µM (inactive) | 47.4 µM (inactive) | 24.9 µM (inactive) | 83 µM (inactive) |
| N#Cc1ccc(/C=N/NC(=O)CSCC(=O)N/N=C/c2ccc(C#N)cc2)cc1 | > 100 µM (inactive) | 53.1 µM (inactive) | > 100 µM (inactive) | > 100 µM (inactive) | > 100 µM | > 100 µM (inactive) | > 100 µM (inactive) | > 100 µM (inactive) | – | > 100 µM (inactive) | > 100 µM (inactive) | > 100 µM (inactive) | > 100 µM (inactive) | > 100 µM (inactive) | > 100 µM (inactive) | > 100 µM (inactive) | > 100 µM (inactive) | > 100 µM (inactive) |
| CCOC(=O)C(NC(=O)c1nc[nH]c1[N+](=O)[O-])C(C)C (stereo unspecified) | > 100 µM (inactive) | 84.9 µM (inactive) | 72.4 µM (inactive) | 72.6 µM (inactive) | > 100 µM | 71.1 µM (inactive) | > 100 µM (inactive) | 61.1 µM (inactive) | 47.2 µM (inactive) | > 100 µM (inactive) | > 100 µM (inactive) | 47.9 µM (inactive) | > 100 µM (inactive) | > 100 µM (inactive) | > 100 µM (inactive) | – | > 100 µM (inactive) | 17.3 µM (inactive) |
| O=C1CCC2CCc3cccc4oc1c2c34 (stereo unspecified) | > 100 µM (inactive) | > 100 µM (inactive) | 96.2 µM (inactive) | > 100 µM (inactive) | > 100 µM | > 100 µM (inactive) | > 100 µM (inactive) | – | > 100 µM (inactive) | – | > 100 µM (inactive) | 10.6 µM (inactive) | – | > 100 µM (inactive) | – | – | – | > 100 µM (inactive) |
| COc1ccc(/C=C/CN(C)CCc2ccccc2)cc1OC | 26.5 µM (inactive) | > 100 µM (inactive) | 40.6 µM (inactive) | 59.3 µM (inactive) | > 100 µM | > 100 µM (inactive) | > 100 µM (inactive) | – | – | 22.9 µM (inactive) | 73.3 µM (inactive) | 53.5 µM (inactive) | > 100 µM (inactive) | > 100 µM (inactive) | 62.4 µM (inactive) | 41.1 µM (inactive) | – | 59.2 µM (inactive) |
| COCCNC(=O)C1C(=O)C(=O)N(CCOC)C1=O (stereo unspecified) | > 100 µM (inactive) | > 100 µM (inactive) | – | – | > 100 µM | > 100 µM (inactive) | > 100 µM (inactive) | > 100 µM (inactive) | > 100 µM (inactive) | > 100 µM (inactive) | > 100 µM (inactive) | > 100 µM (inactive) | > 100 µM (inactive) | > 100 µM (inactive) | > 100 µM (inactive) | > 100 µM (inactive) | > 100 µM (inactive) | > 100 µM (inactive) |
| O=C1NCCS(=O)(=O)N2CCC[C@@H]12 | > 100 µM (inactive) | > 100 µM (inactive) | > 100 µM (inactive) | > 100 µM (inactive) | > 100 µM | > 100 µM (inactive) | > 100 µM (inactive) | > 100 µM (inactive) | > 100 µM (inactive) | > 100 µM (inactive) | > 100 µM (inactive) | > 100 µM (inactive) | – | > 100 µM (inactive) | > 100 µM (inactive) | > 100 µM (inactive) | > 100 µM (inactive) | > 100 µM (inactive) |
| COc1ccc(/C(Cl)=C(/c2ccc(O)cc2)c2ccc(OCCN(C)C)cc2)cc1 | – | 15.5 µM (inactive) | – | 5.96 µM (inactive) | 11.3 µM | 6.03 µM (inactive) | 16.4 µM (inactive) | 2.9 µM (inactive) | – | 7.03 µM (inactive) | 15.3 µM (inactive) | 4.78 µM (inactive) | 10.4 µM (inactive) | 13.8 µM (inactive) | 4.62 µM (inactive) | 13.3 µM (inactive) | 12.1 µM (inactive) | 4.28 µM (inactive) |
| C(=C\c1cc(CCc2nc3ccccc3[nH]2)n[nH]1)/c1ccccc1 | > 100 µM (inactive) | > 100 µM (inactive) | > 100 µM (inactive) | > 100 µM (inactive) | > 100 µM | > 100 µM (inactive) | > 100 µM (inactive) | > 100 µM (inactive) | 89.3 µM (inactive) | > 100 µM (inactive) | > 100 µM (inactive) | > 100 µM (inactive) | – | > 100 µM (inactive) | > 100 µM (inactive) | > 100 µM (inactive) | > 100 µM (inactive) | > 100 µM (inactive) |
| CCOC(=O)C1Sc2ccccc2N=C1C (stereo unspecified) | > 100 µM (inactive) | > 100 µM (inactive) | > 100 µM (inactive) | > 100 µM (inactive) | > 100 µM | > 100 µM (inactive) | > 100 µM (inactive) | > 100 µM (inactive) | – | > 100 µM (inactive) | > 100 µM (inactive) | > 100 µM (inactive) | > 100 µM (inactive) | > 100 µM (inactive) | > 100 µM (inactive) | > 100 µM (inactive) | > 100 µM (inactive) | – |
